Measurements as given in the kinase profiling compilation of Christmann-Franck et al. (2016).
pIC50, pKd: −log10 of the molar value.

Key:
[1] = molecular target: STK17A (human) (UniProt Q9UEE5); assay: KINOMEscan competition binding; conditions: compound 10.0 µM
[2] = molecular target: RPS6KA1 KD2 (human) (UniProt Q15418); assay: KINOMEscan competition binding; conditions: compound 10.0 µM
[3] = molecular target: TLK2 (human) (UniProt Q86UE8); assay: KINOMEscan competition binding; conditions: compound 10.0 µM
[4] = molecular target: ZAP70 (human) (UniProt P43403); assay: KINOMEscan competition binding; conditions: compound 10.0 µM
[5] = molecular target: CDK7 (human) (UniProt P50613); assay: KINOMEscan competition binding; conditions: compound 10.0 µM
[6] = molecular target: MAPK14 (human) (UniProt Q16539); assay: KINOMEscan competition binding; conditions: compound 10.0 µM
[7] = molecular target: GAK (human) (UniProt O14976); assay: KINOMEscan competition binding; conditions: compound 10.0 µM
Sequence of GAK (human) (O14976 whole entry, looked up): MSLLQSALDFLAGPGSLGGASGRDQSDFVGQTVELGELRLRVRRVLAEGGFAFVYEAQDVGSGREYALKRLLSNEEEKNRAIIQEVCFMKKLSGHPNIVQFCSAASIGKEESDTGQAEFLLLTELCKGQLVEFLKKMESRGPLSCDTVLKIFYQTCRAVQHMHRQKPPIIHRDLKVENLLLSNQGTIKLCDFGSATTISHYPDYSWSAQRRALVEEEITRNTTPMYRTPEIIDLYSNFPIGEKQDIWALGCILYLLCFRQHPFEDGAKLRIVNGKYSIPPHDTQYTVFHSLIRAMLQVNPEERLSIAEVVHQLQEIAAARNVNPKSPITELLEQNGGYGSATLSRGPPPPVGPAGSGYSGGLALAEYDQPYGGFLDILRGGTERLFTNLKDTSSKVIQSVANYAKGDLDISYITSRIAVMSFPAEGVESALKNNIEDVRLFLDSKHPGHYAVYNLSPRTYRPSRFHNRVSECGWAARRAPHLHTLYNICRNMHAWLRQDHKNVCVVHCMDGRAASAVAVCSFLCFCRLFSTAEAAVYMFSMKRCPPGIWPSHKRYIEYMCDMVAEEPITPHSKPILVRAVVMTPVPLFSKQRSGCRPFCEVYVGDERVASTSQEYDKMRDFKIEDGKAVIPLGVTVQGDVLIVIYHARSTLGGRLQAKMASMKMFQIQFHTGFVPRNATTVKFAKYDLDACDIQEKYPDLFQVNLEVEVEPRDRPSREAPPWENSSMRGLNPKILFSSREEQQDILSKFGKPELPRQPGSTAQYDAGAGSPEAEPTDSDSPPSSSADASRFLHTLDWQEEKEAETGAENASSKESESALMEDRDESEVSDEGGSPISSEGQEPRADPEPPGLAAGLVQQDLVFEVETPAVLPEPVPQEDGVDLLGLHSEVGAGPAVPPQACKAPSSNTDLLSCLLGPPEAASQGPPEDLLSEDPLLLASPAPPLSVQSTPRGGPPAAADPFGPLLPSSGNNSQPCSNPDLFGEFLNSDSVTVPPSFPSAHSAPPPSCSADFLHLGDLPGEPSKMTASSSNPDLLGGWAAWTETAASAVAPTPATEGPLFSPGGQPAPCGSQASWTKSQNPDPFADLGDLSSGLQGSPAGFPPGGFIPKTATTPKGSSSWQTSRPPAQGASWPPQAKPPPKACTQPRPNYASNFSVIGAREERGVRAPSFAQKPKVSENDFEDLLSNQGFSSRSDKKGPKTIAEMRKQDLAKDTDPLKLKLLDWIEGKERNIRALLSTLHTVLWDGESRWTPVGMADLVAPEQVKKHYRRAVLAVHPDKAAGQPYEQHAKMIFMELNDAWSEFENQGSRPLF

[8] = molecular target: MYLK4 (human) (UniProt Q86YV6); assay: KINOMEscan competition binding; conditions: compound 10.0 µM
[9] = molecular target: RPS6KA2 KD2 (human) (UniProt Q15349); assay: KINOMEscan competition binding; conditions: compound 10.0 µM
Sequence of RPS6KA2 KD2 (human) (Q15349 whole entry, looked up): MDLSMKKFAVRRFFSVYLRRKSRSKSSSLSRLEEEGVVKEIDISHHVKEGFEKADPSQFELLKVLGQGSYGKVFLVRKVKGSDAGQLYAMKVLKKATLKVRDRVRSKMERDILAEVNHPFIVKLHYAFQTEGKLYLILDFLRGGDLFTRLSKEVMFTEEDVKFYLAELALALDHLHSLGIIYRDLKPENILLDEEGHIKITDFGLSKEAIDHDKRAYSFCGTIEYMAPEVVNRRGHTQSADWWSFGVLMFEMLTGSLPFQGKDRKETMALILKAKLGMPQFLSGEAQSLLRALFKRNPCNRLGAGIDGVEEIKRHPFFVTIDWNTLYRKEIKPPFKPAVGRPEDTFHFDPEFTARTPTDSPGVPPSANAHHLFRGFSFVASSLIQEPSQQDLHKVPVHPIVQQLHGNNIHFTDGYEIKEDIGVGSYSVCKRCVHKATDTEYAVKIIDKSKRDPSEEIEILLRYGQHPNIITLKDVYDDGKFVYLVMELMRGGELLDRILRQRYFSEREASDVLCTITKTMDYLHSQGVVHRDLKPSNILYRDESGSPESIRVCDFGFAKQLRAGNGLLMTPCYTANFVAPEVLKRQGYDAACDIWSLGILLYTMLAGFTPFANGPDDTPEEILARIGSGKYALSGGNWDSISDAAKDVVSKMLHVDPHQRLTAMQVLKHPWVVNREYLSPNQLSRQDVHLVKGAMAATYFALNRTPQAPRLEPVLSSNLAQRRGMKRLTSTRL

[10] = molecular target: CDK16 (human) (UniProt Q00536); assay: KINOMEscan competition binding; conditions: compound 10.0 µM
[11] = molecular target: PIM1 (human) (UniProt P11309); assay: KINOMEscan competition binding; conditions: compound 10.0 µM
Sequence of PIM1 (human) (P11309 whole entry, looked up): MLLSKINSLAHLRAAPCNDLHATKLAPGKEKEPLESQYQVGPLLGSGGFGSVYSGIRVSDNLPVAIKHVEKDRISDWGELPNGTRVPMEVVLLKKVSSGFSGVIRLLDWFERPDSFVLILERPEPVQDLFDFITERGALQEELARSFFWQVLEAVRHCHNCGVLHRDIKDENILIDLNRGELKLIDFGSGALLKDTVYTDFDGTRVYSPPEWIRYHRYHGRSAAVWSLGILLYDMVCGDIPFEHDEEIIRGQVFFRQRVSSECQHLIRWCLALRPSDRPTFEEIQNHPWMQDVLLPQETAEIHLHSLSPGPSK

[12] = molecular target: TTK (human) (UniProt P33981); assay: KINOMEscan competition binding; conditions: for kinase still bound, per cent of control: compound 10.0 µM
Sequence of TTK (human) (P33981 whole entry, looked up): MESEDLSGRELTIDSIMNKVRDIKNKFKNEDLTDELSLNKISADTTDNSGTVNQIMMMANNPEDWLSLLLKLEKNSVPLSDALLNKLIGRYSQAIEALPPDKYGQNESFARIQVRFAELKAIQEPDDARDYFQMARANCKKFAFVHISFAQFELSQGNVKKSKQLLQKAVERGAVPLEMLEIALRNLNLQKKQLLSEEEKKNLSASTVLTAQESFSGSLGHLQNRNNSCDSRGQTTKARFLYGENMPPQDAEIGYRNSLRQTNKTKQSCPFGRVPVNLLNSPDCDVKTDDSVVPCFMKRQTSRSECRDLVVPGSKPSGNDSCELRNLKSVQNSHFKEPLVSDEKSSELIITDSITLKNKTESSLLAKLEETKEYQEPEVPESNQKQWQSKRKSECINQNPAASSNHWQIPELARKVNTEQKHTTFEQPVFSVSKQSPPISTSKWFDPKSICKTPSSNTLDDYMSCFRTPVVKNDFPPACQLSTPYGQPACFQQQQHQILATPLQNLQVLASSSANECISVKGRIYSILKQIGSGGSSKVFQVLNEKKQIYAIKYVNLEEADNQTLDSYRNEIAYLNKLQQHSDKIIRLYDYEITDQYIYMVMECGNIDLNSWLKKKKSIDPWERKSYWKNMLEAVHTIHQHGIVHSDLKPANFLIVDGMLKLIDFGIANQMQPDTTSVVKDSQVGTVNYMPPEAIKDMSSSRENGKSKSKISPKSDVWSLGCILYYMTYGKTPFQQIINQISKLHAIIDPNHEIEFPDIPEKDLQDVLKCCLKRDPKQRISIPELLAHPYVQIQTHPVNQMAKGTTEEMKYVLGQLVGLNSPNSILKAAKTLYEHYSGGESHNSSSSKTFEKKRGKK

[13] = molecular target: PIM3 (human) (UniProt Q86V86); assay: KINOMEscan competition binding; conditions: compound 10.0 µM
[14] = molecular target: HIPK1 (human) (UniProt Q86Z02); assay: KINOMEscan competition binding; conditions: compound 10.0 µM
[15] = molecular target: PIM2 (human) (UniProt Q9P1W9); assay: KINOMEscan competition binding; conditions: compound 10.0 µM
Sequence of PIM2 (human) (Q9P1W9 whole entry, looked up): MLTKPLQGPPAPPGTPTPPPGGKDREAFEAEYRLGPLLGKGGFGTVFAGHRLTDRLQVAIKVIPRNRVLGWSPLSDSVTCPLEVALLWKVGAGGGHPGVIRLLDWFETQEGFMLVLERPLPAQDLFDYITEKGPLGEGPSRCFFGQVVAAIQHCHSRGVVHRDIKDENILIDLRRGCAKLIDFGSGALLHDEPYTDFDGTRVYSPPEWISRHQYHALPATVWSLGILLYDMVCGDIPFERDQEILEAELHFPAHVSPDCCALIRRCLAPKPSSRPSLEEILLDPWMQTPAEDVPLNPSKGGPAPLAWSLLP

[16] = molecular target: PAK2 (human) (UniProt Q13177); assay: KINOMEscan competition binding; conditions: compound 10.0 µM
[17] = molecular target: PLK4 (human) (UniProt O00444); assay: KINOMEscan competition binding; conditions: compound 10.0 µM
Sequence of PLK4 (human) (O00444 whole entry, looked up): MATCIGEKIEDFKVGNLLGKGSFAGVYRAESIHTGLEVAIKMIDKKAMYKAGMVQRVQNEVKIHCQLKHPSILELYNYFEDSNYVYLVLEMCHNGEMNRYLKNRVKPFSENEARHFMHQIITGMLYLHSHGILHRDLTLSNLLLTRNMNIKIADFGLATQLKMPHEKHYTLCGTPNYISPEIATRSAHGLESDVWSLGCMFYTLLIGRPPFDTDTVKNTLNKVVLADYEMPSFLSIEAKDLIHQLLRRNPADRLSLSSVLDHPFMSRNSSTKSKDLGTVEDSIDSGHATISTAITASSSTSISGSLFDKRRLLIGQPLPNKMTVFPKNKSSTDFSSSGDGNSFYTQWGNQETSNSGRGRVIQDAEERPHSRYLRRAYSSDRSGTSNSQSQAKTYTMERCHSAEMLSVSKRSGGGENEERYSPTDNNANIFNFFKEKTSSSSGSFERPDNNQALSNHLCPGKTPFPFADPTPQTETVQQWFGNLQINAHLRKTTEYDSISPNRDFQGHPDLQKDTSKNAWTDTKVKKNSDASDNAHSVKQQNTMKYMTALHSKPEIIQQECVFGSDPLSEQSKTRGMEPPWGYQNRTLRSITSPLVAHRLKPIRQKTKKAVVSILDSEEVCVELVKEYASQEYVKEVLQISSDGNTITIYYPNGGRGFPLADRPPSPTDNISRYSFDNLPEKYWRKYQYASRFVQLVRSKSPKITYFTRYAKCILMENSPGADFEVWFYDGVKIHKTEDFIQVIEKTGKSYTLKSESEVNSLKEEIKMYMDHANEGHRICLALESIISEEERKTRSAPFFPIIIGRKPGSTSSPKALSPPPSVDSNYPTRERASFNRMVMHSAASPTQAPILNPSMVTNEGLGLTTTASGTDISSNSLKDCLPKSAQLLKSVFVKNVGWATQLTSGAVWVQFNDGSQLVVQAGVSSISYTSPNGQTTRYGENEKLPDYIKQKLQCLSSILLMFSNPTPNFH

[18] = molecular target: TAOK3 (human) (UniProt Q9H2K8); assay: KINOMEscan competition binding; conditions: compound 10.0 µM
[19] = molecular target: RPS6KA6 KD2 (human) (UniProt Q9UK32); assay: KINOMEscan competition binding; conditions: compound 10.0 µM
[20] = molecular target: PAK7 (human) (UniProt Q9P286); assay: KINOMEscan competition binding; conditions: compound 10.0 µM
[21] = molecular target: MAPK8 (human) (UniProt P45983); assay: KINOMEscan competition binding; conditions: compound 10.0 µM
[22] = molecular target: TAOK1 (human) (UniProt Q7L7X3); assay: KINOMEscan competition binding; conditions: compound 10.0 µM
[23] = molecular target: STK25 (human) (UniProt O00506); assay: KINOMEscan competition binding; conditions: compound 10.0 µM
[24] = molecular target: EIF2AK2 (human) (UniProt P19525); assay: KINOMEscan competition binding; conditions: compound 10.0 µM
[25] = molecular target: MAPK10 (human) (UniProt P53779); assay: KINOMEscan competition binding; conditions: compound 10.0 µM
[26] = molecular target: MAP2K3 (human) (UniProt P46734); assay: KINOMEscan competition binding; conditions: compound 10.0 µM
[27] = molecular target: CLK2 (human) (UniProt P49760); assay: KINOMEscan competition binding; conditions: compound 10.0 µM
[28] = molecular target: MAPK15 (human) (UniProt Q8TD08); assay: KINOMEscan competition binding; conditions: compound 10.0 µM
[29] = molecular target: AAK1 (human) (UniProt Q2M2I8); assay: KINOMEscan competition binding; conditions: compound 10.0 µM
[30] = molecular target: MAPK9 (human) (UniProt P45984); assay: KINOMEscan competition binding; conditions: compound 10.0 µM
[31] = molecular target: RPS6KA4 KD2 (human) (UniProt O75676); assay: KINOMEscan competition binding; conditions: compound 10.0 µM
[32] = molecular target: RAF1 (human) (UniProt P04049); assay: KINOMEscan competition binding; conditions: compound 10.0 µM
[33] = molecular target: PLK1 (human) (UniProt P53350); assay: KINOMEscan competition binding; conditions: compound 10.0 µM
[34] = molecular target: MYLK (human) (UniProt Q15746); assay: KINOMEscan competition binding; conditions: compound 10.0 µM
[35] = molecular target: PLK3 (human) (UniProt Q9H4B4); assay: KINOMEscan competition binding; conditions: compound 10.0 µM
[36] = molecular target: TTK (human) (UniProt P33981); assay: SelectScreen, TR FRET
[37] = molecular target: PTK2 (human) (UniProt Q05397); assay: KINOMEscan competition binding; conditions: compound 10.0 µM
[38] = molecular target: STK33 (human) (UniProt Q9BYT3); assay: KINOMEscan competition binding; conditions: compound 10.0 µM
[39] = molecular target: PIM1 (human) (UniProt P11309); assay: SelectScreen, TR FRET
[40] = molecular target: PIM2 (human) (UniProt Q9P1W9); assay: SelectScreen, TR FRET
[41] = molecular target: MAPK12 (human) (UniProt P53778); assay: KINOMEscan competition binding; conditions: compound 10.0 µM
[42] = molecular target: LATS2 (human) (UniProt Q9NRM7); assay: KINOMEscan competition binding; conditions: compound 10.0 µM
[43] = molecular target: BTK (human) (UniProt Q06187); assay: KINOMEscan competition binding; conditions: compound 10.0 µM
[44] = molecular target: CSNK2A1 (human) (UniProt P68400); assay: KINOMEscan competition binding; conditions: compound 10.0 µM
[45] = molecular target: DAPK2 (human) (UniProt Q9UIK4); assay: KINOMEscan competition binding; conditions: compound 10.0 µM
[46] = molecular target: STK17B (human) (UniProt O94768); assay: KINOMEscan competition binding; conditions: compound 10.0 µM
[47] = molecular target: DAPK1 (human) (UniProt P53355); assay: KINOMEscan competition binding; conditions: compound 10.0 µM
[48] = molecular target: PIK3CG (human) (UniProt P48736); assay: KINOMEscan competition binding; conditions: compound 10.0 µM
[49] = tested on: PIK3CA (human), P42336 [E545K]; assay: KINOMEscan competition binding; conditions: compound 10.0 µM
[50] = molecular target: PIK3C2B (human) (UniProt O00750); assay: KINOMEscan competition binding; conditions: compound 10.0 µM
[51] = molecular target: CSNK2A2 (human) (UniProt P19784); assay: KINOMEscan competition binding; conditions: compound 10.0 µM
[52] = molecular target: PIK3CD (human) (UniProt O00329); assay: KINOMEscan competition binding; conditions: compound 10.0 µM
[53] = molecular target: PIK3CA (human) (UniProt P42336); assay: KINOMEscan competition binding; conditions: compound 10.0 µM
[54] = molecular target: DAPK3 (human) (UniProt O43293); assay: KINOMEscan competition binding; conditions: compound 10.0 µM
[55] = molecular target: MINK1 (human) (UniProt Q8N4C8); assay: KINOMEscan competition binding; conditions: compound 10.0 µM
[56] = molecular target: PIK3CB (human) (UniProt P42338); assay: KINOMEscan competition binding; conditions: compound 10.0 µM
[57] = molecular target: DDR1 (human) (UniProt Q08345); assay: KINOMEscan competition binding; conditions: compound 10.0 µM
[58] = molecular target: STK24 (human) (UniProt Q9Y6E0); assay: KINOMEscan competition binding; conditions: compound 10.0 µM
[59] = molecular target: TLK1 (human) (UniProt Q9UKI8); assay: KINOMEscan competition binding; conditions: compound 10.0 µM
[60] = molecular target: CDC42BPB (human) (UniProt Q9Y5S2); assay: KINOMEscan competition binding; conditions: compound 10.0 µM
[61] = molecular target: MKNK2 (human) (UniProt Q9HBH9); assay: KINOMEscan competition binding; conditions: compound 10.0 µM

Structure (SMILES) | kinase still bound, per cent of control [2] [%] | kinase still bound, per cent of control [5] [%] | kinase still bound, per cent of control [7] [%] | kinase still bound, per cent of control [9] [%] | kinase still bound, per cent of control [10] [%] | kinase still bound, per cent of control [11] [%] | kinase still bound, per cent of control [12] [%] | kinase still bound, per cent of control [13] [%] | kinase still bound, per cent of control [14] [%] | kinase still bound, per cent of control [15] [%] | kinase still bound, per cent of control [17] [%] | kinase still bound, per cent of control [19] [%] | kinase still bound, per cent of control [21] [%] | kinase still bound, per cent of control [22] [%] | kinase still bound, per cent of control [26] [%] | kinase still bound, per cent of control [29] [%] | kinase still bound, per cent of control [31] [%] | kinase still bound, per cent of control [32] [%] | kinase still bound, per cent of control [33] [%] | kinase still bound, per cent of control [35] [%] | other results
CSC1=NC(=O)/C(=C/c2ccc(-c3ccc(S(N)(=O)=O)cc3)o2)S1 | 12 | 1.4 | 6.7 | 5.3 | 0.1 | 1.6 | 16 | 1.8 | 6.5 | 3 | 0.05 | 18 | 31 | 3.6 | 14 | 14 |  |  |  |  | kinase still bound, per cent of control [1]: 2.5%; kinase still bound, per cent of control [3]: 28%; kinase still bound, per cent of control [4]: 32%; kinase still bound, per cent of control [6]: 19%; kinase still bound, per cent of control [8]: 19%; kinase still bound, per cent of control [16]: 34%; kinase still bound, per cent of control [18]: 24%; kinase still bound, per cent of control [20]: 28%; kinase still bound, per cent of control [23]: 32%; kinase still bound, per cent of control [24]: 17%; kinase still bound, per cent of control [25]: 22%; kinase still bound, per cent of control [27]: 9.8%; kinase still bound, per cent of control [28]: 29%; kinase still bound, per cent of control [30]: 6%
CCN(CC)C1CCN(c2ccc(Nc3ncc4c(n3)N3CCCC3C=CN4C)c(OC(C)C)c2)CC1 (centres undefined) |  |  | 27 | 32 |  |  | 7.4 |  |  |  |  |  |  |  |  |  | 1.9 | 0 | 4.4 | 5.8 | kinase still bound, per cent of control [34]: 25%
COc1cc(N(C)CCO)ccc1Nc1ncc2c(n1)N(C1CCCC1)CCC(=O)N2C |  |  | 2.4 |  |  |  | 2.2 |  |  |  | 14 |  |  |  |  |  |  | 0 | 7.4 | 0 | pIC50 [36]: 5.86; pKd [12]: 6.80; kinase still bound, per cent of control [37]: 17%; kinase still bound, per cent of control [38]: 17%
NS(=O)(=O)c1ccc(-c2ccc(/C=C3\SC(=O)NC3=O)o2)cc1 |  | 27 |  |  | 19 | 4 |  | 4.9 | 2.4 | 0.9 | 21 |  |  | 9.6 | 34 | 34 | 9.9 |  |  |  | pIC50 [39]: 6.67; pIC50 [40]: 6.90; kinase still bound, per cent of control [41]: 28%; kinase still bound, per cent of control [42]: 8.1%; kinase still bound, per cent of control [43]: 30%; kinase still bound, per cent of control [44]: 18%; kinase still bound, per cent of control [45]: 6.4%; kinase still bound, per cent of control [46]: 9%; kinase still bound, per cent of control [47]: 6%; kinase still bound, per cent of control [48]: 3.6%; kinase still bound, per cent of control [49]: 20%; kinase still bound, per cent of control [50]: 18%; kinase still bound, per cent of control [51]: 7.9%; kinase still bound, per cent of control [52]: 32%; kinase still bound, per cent of control [53]: 15%; kinase still bound, per cent of control [54]: 11%; kinase still bound, per cent of control [55]: 1.8%; kinase still bound, per cent of control [56]: 31%
O=C1NC(=O)/C(=C/c2ccc(-c3ccc4c(C(=O)Nc5cccc(C(F)(F)F)c5)cccc4c3)o2)S1 | 23 |  |  | 31 |  | 14 |  | 11 |  | 0.75 |  | 25 | 30 |  |  |  |  |  |  |  | pIC50 [39]: 5.04; pIC50 [40]: 5.54; kinase still bound, per cent of control [57]: 21%; kinase still bound, per cent of control [44]: 33%; kinase still bound, per cent of control [58]: 29%; kinase still bound, per cent of control [46]: 7.4%; kinase still bound, per cent of control [59]: 24%; kinase still bound, per cent of control [60]: 28%; kinase still bound, per cent of control [61]: 34%; kinase still bound, per cent of control [51]: 33%
